The values that follow come from patent US20240418701A1, “SINGLE MOLECULE IDEN[…] A REACTIVE HETERO-NANOPORE” (priority 2021, published 2024).

The target of experiment [1] is T1, MspA-PBA (boronic acid appended hetero-octameric MspA) (Mycolicibacterium smegmatis, UniProt A0QR29, D117C/D118N/D120N/D145R/D161R/E166K).
T1 construct: H6 (hexa-histidine) (C); 3-(maleimide) phenylboronic acid (MPBA) adduct on the thiol of Cys90; made in house; host or cells: E. coli BL21 (DE3) pLysS, co-expression from pETDuet-1
T1 sequence (A0QR29 other isoform, or with tags, fused parts or gaps D117N/D118N/D120N/D145R/D161R/E166K): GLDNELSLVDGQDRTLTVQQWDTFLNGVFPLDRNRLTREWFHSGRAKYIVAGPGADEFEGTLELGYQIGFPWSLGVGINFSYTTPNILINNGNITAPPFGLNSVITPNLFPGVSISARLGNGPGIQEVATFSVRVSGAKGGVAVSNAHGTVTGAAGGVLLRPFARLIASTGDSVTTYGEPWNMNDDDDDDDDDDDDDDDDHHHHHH
T1 sequence (A0QR29 other isoform, or with tags, fused parts or gaps D117C/D118N/D120N/D145R/D161R/E166K): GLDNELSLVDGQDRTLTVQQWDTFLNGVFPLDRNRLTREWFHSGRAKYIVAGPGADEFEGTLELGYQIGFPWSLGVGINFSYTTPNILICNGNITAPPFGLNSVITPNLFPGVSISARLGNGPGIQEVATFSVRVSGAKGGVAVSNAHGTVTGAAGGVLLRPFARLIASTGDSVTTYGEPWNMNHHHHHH
Description: Single channel recording of alditol binding to MspA-PBA nanopore (standards and zero-sugar drinks). Also on record: species or system Mycobacterium smegmatis. As to conditions: N=3; for ratio (mean current percentage blockage) / std (standard deviation of the blocking level): alditol 4 mM (glycerol 8 mM) in cis. On the procedure:
FIG. 88: Definition of event parameters. (a) A representative electrophysiology trace containing nanopore events. Xylitol was treated as the model analyte. I0 is the open pore current and Ib is the residual current caused by alditol blockade. ratio is derived from (I0−Ib)/I0, which is defined as the percentage blockage. τoff represents the dwell time of an event. τon represents the inter-event interval. std is the standard deviation value of the blockage level. (b-c) The histogram plot of ratio (b) and std (c) acquired from a continually recorded trace. The histograms were Gaussian fitted and the peaks of the fitting results respectively represent the mean value of ratio and the mean std. (d-e) The histogram plots of τoff (d) and τon (e) acquired from a continually recorded trace. The histogram plots were respectively fit to a single exponential curve, according to the equation y=a*exp (−x/τ), from which the mean event dwell time (τoff) (d) and the mean inter-event interval (τon) (e) were respectively derived. If not otherwise stated, all results in this manuscript were described by event parameters defined above.
All subsequent nanopore measurements were carried out with a 1.5 M KCl buffer (1.5 M KCl, 10 mM 3-(N-Morpholino) propanesulfonic acid (MOPS), pH 7.0) and a +100 m V continually applied potential (Method 1 in Example 3). 13 types of alditols, which were derived from the reduction of the carbonyl group of C3-C6 monoaldoses were treated as model polyols (FIGS. 77b and 83). The PBA of MspA-PBA can complex with a polyol, forming a cyclic ester at the pore constriction and resulting in the corresponding nanopore event being reported. All alditols were added to the cis side of the pore and the final concentration of alditols was set at 4 mM with the exception of glycerol, which was set at 8 mM instead. […] In addition, single molecule sensing of glycerol and D-Sorbitol by MspA-PBA are as shown in FIGS. 104 and 105, respectively.
To describe the sensing events quantitatively, event parameters such as the open-pore current (I0), the current blockade (Ib), the percentage blockage (ratio), the event dwell time (τoff), the inter-event intervals (τon) and the standard deviation value of the blockage level (std) were defined as described in FIG. 88. The percentage blockage, also referred to for simplicity as ratio, is defined as (I0−Ib)/I0.
Quantitatively, the reciprocal of the mean inter-event interval (1/τon, N=3) is linearly correlated with the alditol concentration, consistent with a bimolecular model. The mean event dwell time τoff (N=3) however is independent of the alditol concentration, and this is consistent with a unimolecular dissociation mechanism (FIGS. 89e-92e, Table 18). […] The binding constant for borate cyclic ester formation for alditols increases as the number of hydroxyl groups in the alditol increases (FIG. 77c and Table 18), consistent with conclusions drawn previously from the corresponding NMR measurements.^52 Nanopore measurements were also performed with different applied voltages. […] This is expected because all alditols tested in this paper are electrically neutral and the formation of a borate ester is independent of the local electric field.
All nanopore measurements were performed as described previously.^1,2 Briefly, the measurement device has two custom chambers separated by a thick Teflon film containing a drilled (˜100 μm) aperture. Before the measurement, the aperture was first treated with 0.5% (v/v) hexadecane in pentane and set for pentane evaporation. Electrolyte buffer (500 μL) was added to the electrically grounded chamber (cis chamber) and the opposing chamber (trans chamber). All nanopore measurements in this paper were performed with a 1.5 M KCl buffer (1.5 M KCl, 10 mM MOPS, pH 7.0). Two custom-made Ag/AgCl electrodes were placed in both chambers in contact with the buffers and the patch-clamp amplifier to form a closed circuit. […]

Another experiment addresses T2, Octameric M2 MspA (Mycolicibacterium smegmatis, UniProt A0QR29, D117N/D118N/D120N/D145R/D161R/E166K).
T2 construct: made in house; host or cells: E. coli BL21 (DE3)
Description: Alditol sensing using M2 MspA nanopore (control without PBA). Conditions: alditol 4 mM in cis, +100 mV. Format: binding, Mycobacterium smegmatis. On the procedure: FIG. 87: Alditol sensing using M2 MspA nanopore. Glycerol, erythritol, xylitol and sorbitol were used as the representative alditols with different number of hydroxyl groups. All measurements were carried out as described in Methods 1 in Example 3. Octameric M2 MspA was applied as the nanopore sensor. A transmembrane potential of +100 m V was continually applied. Each alditol was added to cis with a final concentration of 4 mM.
The octameric M2 MspA was used as a control in FIG. 87. It was expressed with E. coli BL21 (DE3) and purified by nickel affinity chromatography as reported previously.^1

The mark [2] stands for this setting: voltage series: +60 mV, glycerol 12 mM, other alditols 8 mM.
Where [3] appears, read: voltage series: +80 mV, glycerol 12 mM, other alditols 8 mM.
Where [4] appears, read: voltage series: +100 mV, glycerol 12 mM, other alditols 8 mM.
The mark [5] stands for this setting: voltage series: +120 mV, glycerol 12 mM, other alditols 8 mM.

T2 sequence (A0QR29 28-211 D117N/D118N/D120N/D145R/D161R/E166K): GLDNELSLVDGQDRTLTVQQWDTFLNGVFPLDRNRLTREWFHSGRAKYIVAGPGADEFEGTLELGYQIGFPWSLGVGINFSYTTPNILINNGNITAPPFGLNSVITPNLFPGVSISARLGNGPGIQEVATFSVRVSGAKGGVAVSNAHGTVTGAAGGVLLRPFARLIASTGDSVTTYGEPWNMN

With `OC[C@@H](O)[C@@H](O)CO` [erythritol], the “ratio (mean current percentage blockage)” value in experiment [1] (+100 mV) is 22.00±0.17%. Besides, the “std (standard deviation of the blocking level)” value in experiment [1] (+100 mV) amounted to 3.24±0.18 pA. In addition, the 1/τon was found to be 0.42 ± 0.05 s⁻¹ in experiment [1] (alditol 2 mM in cis, +100 mV); 0.80 ± 0.05 s⁻¹ in experiment [1] (alditol 4 mM in cis, +100 mV); 1.16 ± 0.03 s⁻¹ in experiment [1] (alditol 6 mM in cis, +100 mV); 1.59 ± 0.09 s⁻¹ in experiment [1] (alditol 8 mM in cis, +100 mV); 1.62 ± 0.10 s⁻¹ in experiment [1] (setting [2]); 1.65 ± 0.11 s⁻¹ in experiment [1] (setting [3]). The 1/τon in experiment [1] (setting [4]) came out at 1.64 ± 0.10 s⁻¹; in experiment [1] (setting [5]), 1.65 ± 0.06 s⁻¹. The τoff in experiment [1] (alditol 2 mM in cis, +100 mV) was found to be 42.4 ± 0.5 ms; in experiment [1] (alditol 4 mM in cis, +100 mV), 43.4 ± 3.2 ms; in experiment [1] (alditol 6 mM in cis, +100 mV) it was 42.3 ± 2.3 ms; in experiment [1] (alditol 8 mM in cis, +100 mV), 44.2 ± 1.5 ms. The “binding events with M2 MspA” value at Octameric M2 MspA is reported as “No binding events were observed”.
On to `OCC(O)CO` [glycerol], for which the “ratio (mean current percentage blockage)” value in experiment [1] (+100 mV) is given as 17.07 ± 0.15%. For the same molecule, the “std (standard deviation of the blocking level)” value in experiment [1] (+100 mV) was found to be 2.57 ± 0.07 pA. Besides, the 1/τon in experiment [1] (alditol 6 mM in cis, +100 mV) came out at 1.3 ± 0.2 s⁻¹; in experiment [1] (alditol 8 mM in cis, +100 mV), 1.7 ± 0.2 s⁻¹; in experiment [1] (alditol 10 mM in cis, +100 mV) it was 2.1 ± 0.3 s⁻¹; in experiment [1] (alditol 12 mM in cis, +100 mV) it was 2.5 ± 0.3 s⁻¹; in experiment [1] (setting [2]) it was 2.2 ± 0.2 s⁻¹; in experiment [1] (setting [3]), 2.35 ± 0.14 s⁻¹. The 1/τon in experiment [1] (setting [4]) stood at 2.4 ± 0.3 s⁻¹; in experiment [1] (setting [5]) it was 2.4 ± 0.2 s⁻¹. The τoff in experiment [1] (alditol 6 mM in cis, +100 mV) came out at 10.5 ± 0.8 ms; in experiment [1] (alditol 8 mM in cis, +100 mV), 10.3 ± 0.4 ms; in experiment [1] (alditol 10 mM in cis, +100 mV), 10.5 ± 0.7 ms; in experiment [1] (alditol 12 mM in cis, +100 mV), 10.4 ± 0.5 ms. The “binding events with M2 MspA” value at Octameric M2 MspA is reported as “No binding events were observed”.
As to `OC[C@@H](O)[C@@H](O)[C@H](O)[C@@H](O)CO` [D-sorbitol], the “ratio (mean current percentage blockage)” value in experiment [1] (+100 mV) was 30.43 ± 0.06%. In addition, in experiment [1] (+100 mV), the “std (standard deviation of the blocking level)” value is given as 5.30 ± 0.17 pA. For the same molecule, the 1/τon was determined as 0.40 ± 0.04 s⁻¹ in experiment [1] (alditol 2 mM in cis, +100 mV); 0.81 ± 0.09 s⁻¹ in experiment [1] (alditol 4 mM in cis, +100 mV); 1.2 ± 0.2 s⁻¹ in experiment [1] (alditol 6 mM in cis, +100 mV); 1.7 ± 0.1 s⁻¹ in experiment [1] (alditol 8 mM in cis, +100 mV); 1.67 ± 0.03 s⁻¹ in experiment [1] (setting [2]); 1.60 ± 0.06 s⁻¹ in experiment [1] (setting [3]). Further, the 1/τon in experiment [1] (setting [4]) stood at 1.70 ± 0.06 s⁻¹; in experiment [1] (setting [5]), 1.70 ± 0.05 s⁻¹. Moreover, the τoff in experiment [1] (alditol 2 mM in cis, +100 mV) came to 2100 ± 300 ms; in experiment [1] (alditol 4 mM in cis, +100 mV), 2110 ± 120 ms; in experiment [1] (alditol 6 mM in cis, +100 mV), 2200 ± 200 ms; in experiment [1] (alditol 8 mM in cis, +100 mV), 2200 ± 300 ms. For the same molecule, the “binding events with M2 MspA” value on Octameric M2 MspA was “No binding events were observed”.
